Data as given in PubChem BioAssay (NCI).
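Assay format: 96-well plates, 48-hour exposure. TGI: concentration producing complete growth inhibition.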

What was measured:
Experiment in all cases: inhibition of tumour cell growth, NCI panel, 48 h
COLO 205 colon = system: COLO 205 colon
SK-OV-3 ovarian = system: SK-OV-3 ovarian
HOP-62 NSCLC = system: HOP-62 NSCLC
NCI-H460 lung = system: NCI-H460 lung
NCI/ADR-RES ovarian = system: NCI/ADR-RES ovarian
HCT-15 colon = system: HCT-15 colon
SF-268 CNS = system: SF-268 CNS
PC-3 prostate = system: PC-3 prostate
SNB-75 CNS = system: SNB-75 CNS
SNB-19 CNS = system: SNB-19 CNS
CAKI-1 renal = system: CAKI-1 renal
A549 NSCLC = system: A549 NSCLC
SR leukemia = system: SR leukemia
LOX IMVI melanoma = system: LOX IMVI melanoma
DU-145 prostate = system: DU-145 prostate
SF-295 CNS = system: SF-295 CNS
U251 CNS = system: U251 CNS
IGROV1 ovarian = system: IGROV1 ovarian
MDA-MB-435 = system: MDA-MB-435
RXF 393 renal = system: RXF 393 renal
NCI-H226 lung = system: NCI-H226 lung
NCI-H522 lung = system: NCI-H522 lung
ACHN renal = system: ACHN renal
SN12C renal = system: SN12C renal
A498 renal = system: A498 renal
SK-MEL-5 melanoma = system: SK-MEL-5 melanoma
K-562 leukemia = system: K-562 leukemia
TK-10 renal = system: TK-10 renal
OVCAR-5 ovarian = system: OVCAR-5 ovarian
HCC-2998 colon = system: HCC-2998 colon
KM12 colon = system: KM12 colon
SF-539 CNS = system: SF-539 CNS
SW-620 colon = system: SW-620 colon
HOP-92 NSCLC = system: HOP-92 NSCLC
MCF7 breast = system: MCF7 breast
HL-60(TB) leukemia = system: HL-60(TB) leukemia
UACC-257 melanoma = system: UACC-257 melanoma
M14 melanoma = system: M14 melanoma
MDA-N = system: MDA-N
OVCAR-8 ovarian = system: OVCAR-8 ovarian
UO-31 renal = system: UO-31 renal
CCRF-CEM leukemia = system: CCRF-CEM leukemia
UACC-62 melanoma = system: UACC-62 melanoma
HT29 colon = system: HT29 colon
HCT-116 colon = system: HCT-116 colon
OVCAR-4 ovarian = system: OVCAR-4 ovarian
MDA-MB-231 breast = system: MDA-MB-231 breast
786-0 renal = system: 786-0 renal
MALME-3M melanoma = system: MALME-3M melanoma
MOLT-4 leukemia = system: MOLT-4 leukemia
T-47D breast = system: T-47D breast
OVCAR-3 ovarian = system: OVCAR-3 ovarian
SK-MEL-28 melanoma = system: SK-MEL-28 melanoma
NCI-H23 lung = system: NCI-H23 lung
HS 578T breast = system: HS 578T breast
EKVX NSCLC = system: EKVX NSCLC
RPMI-8226 leukemia = system: RPMI-8226 leukemia
SK-MEL-2 melanoma = system: SK-MEL-2 melanoma

CN(C)c1ccc(/C=N/Nc2nc3ccccc3c(=O)n2-c2ccccc2)cc1
TGI (COLO 205 colon): > 100 µM
TGI (SK-OV-3 ovarian): > 100 µM
TGI (HOP-62 NSCLC): 97.8 µM
TGI (NCI-H460 lung): > 100 µM
TGI (NCI/ADR-RES ovarian): > 100 µM
TGI (HCT-15 colon): > 100 µM
TGI (SF-268 CNS): > 100 µM
TGI (PC-3 prostate): > 100 µM
TGI (SNB-75 CNS): 57.5 µM
TGI (SNB-19 CNS): > 100 µM
TGI (CAKI-1 renal): > 100 µM
TGI (A549 NSCLC): > 100 µM
TGI (SR leukemia): > 100 µM
TGI (LOX IMVI melanoma): > 100 µM
TGI (DU-145 prostate): > 100 µM
TGI (SF-295 CNS): > 100 µM
TGI (U251 CNS): > 100 µM
TGI (IGROV1 ovarian): > 100 µM
TGI (MDA-MB-435): > 100 µM
TGI (RXF 393 renal): > 100 µM
TGI (NCI-H226 lung): > 100 µM
TGI (NCI-H522 lung): > 100 µM
TGI (ACHN renal): > 100 µM
TGI (SN12C renal): > 100 µM
TGI (A498 renal): > 100 µM
TGI (SK-MEL-5 melanoma): > 100 µM
TGI (K-562 leukemia): > 100 µM
TGI (TK-10 renal): > 100 µM
TGI (OVCAR-5 ovarian): > 100 µM
TGI (HCC-2998 colon): > 100 µM
TGI (KM12 colon): > 100 µM
TGI (SF-539 CNS): 72 µM
TGI (SW-620 colon): > 100 µM
TGI (HOP-92 NSCLC): 85.9 µM
TGI (MCF7 breast): > 100 µM
TGI (HL-60(TB) leukemia): > 100 µM
TGI (UACC-257 melanoma): > 100 µM
TGI (M14 melanoma): > 100 µM
TGI (MDA-N): > 100 µM
TGI (OVCAR-8 ovarian): > 100 µM
TGI (UO-31 renal): > 100 µM
TGI (CCRF-CEM leukemia): > 100 µM
TGI (UACC-62 melanoma): 93.6 µM
TGI (HT29 colon): > 100 µM
TGI (HCT-116 colon): > 100 µM
TGI (OVCAR-4 ovarian): 70.2 µM
TGI (MDA-MB-231 breast): > 100 µM
TGI (786-0 renal): 83.3 µM
TGI (MALME-3M melanoma): > 100 µM
TGI (MOLT-4 leukemia): > 100 µM
TGI (T-47D breast): > 100 µM
TGI (OVCAR-3 ovarian): > 100 µM
TGI (SK-MEL-28 melanoma): > 100 µM
TGI (NCI-H23 lung): > 100 µM

Cc1ccc(F)cc1NC(=O)O/N=C(\Cl)C(C)C
TGI (COLO 205 colon): 3.74 µM
TGI (SK-OV-3 ovarian): 36.9 µM
TGI (HOP-62 NSCLC): 37.2 µM
TGI (NCI-H460 lung): 86 µM
TGI (HS 578T breast): > 65.6 µM
TGI (NCI/ADR-RES ovarian): 27.2 µM
TGI (HCT-15 colon): 3.66 µM
TGI (SF-268 CNS): 62.8 µM
TGI (PC-3 prostate): 33.4 µM
TGI (SNB-75 CNS): 35.7 µM
TGI (EKVX NSCLC): 15.5 µM
TGI (SNB-19 CNS): > 56.8 µM
TGI (CAKI-1 renal): 3.09 µM
TGI (A549 NSCLC): 38.2 µM
TGI (LOX IMVI melanoma): 4.79 µM
TGI (DU-145 prostate): 33.5 µM
TGI (SF-295 CNS): > 61.1 µM
TGI (U251 CNS): > 56.4 µM
TGI (IGROV1 ovarian): 33.6 µM
TGI (MDA-MB-435): 32.2 µM
TGI (RXF 393 renal): 9.51 µM
TGI (NCI-H226 lung): 28.5 µM
TGI (NCI-H522 lung): 2.13 µM
TGI (ACHN renal): 4.41 µM
TGI (SN12C renal): 11.4 µM
TGI (A498 renal): 40.9 µM
TGI (SK-MEL-5 melanoma): 24.1 µM
TGI (K-562 leukemia): 5.72 µM
TGI (TK-10 renal): 15 µM
TGI (OVCAR-5 ovarian): 31.7 µM
TGI (HCC-2998 colon): 34.4 µM
TGI (KM12 colon): 34.8 µM
TGI (SF-539 CNS): 18.1 µM
TGI (SW-620 colon): 3.18 µM
TGI (HOP-92 NSCLC): 7.07 µM
TGI (MCF7 breast): 20.8 µM
TGI (HL-60(TB) leukemia): > 21.2 µM
TGI (UACC-257 melanoma): 46.7 µM
TGI (M14 melanoma): 12.2 µM
TGI (MDA-N): 11.8 µM
TGI (OVCAR-8 ovarian): 35.9 µM
TGI (UO-31 renal): 23.2 µM
TGI (CCRF-CEM leukemia): > 39.5 µM
TGI (UACC-62 melanoma): 39.7 µM
TGI (RPMI-8226 leukemia): 4 µM
TGI (HT29 colon): 37 µM
TGI (HCT-116 colon): 35.3 µM
TGI (OVCAR-4 ovarian): 33.1 µM
TGI (SK-MEL-2 melanoma): 35.4 µM
TGI (MDA-MB-231 breast): 32.8 µM
TGI (786-0 renal): 15.7 µM
TGI (MALME-3M melanoma): 16 µM
TGI (MOLT-4 leukemia): 4.83 µM
TGI (T-47D breast): 33.6 µM
TGI (OVCAR-3 ovarian): 13.9 µM
TGI (SK-MEL-28 melanoma): 38 µM
TGI (NCI-H23 lung): > 56.9 µM
